From patent US5756423A, “Method of controlling plants by inhibition of farnesyl pyrophosphate synthase” (Zeneca Limited, priority 1997, dated 1998)
Where two headings read alike, the source gives them in different places.

Experiments:
[1] = tested on: farnesyl pyrophosphate synthase in daffodil chromoplasts; assay: inhibition of farnesyl pyrophosphate synthase in daffodil chromoplasts (14C-isopentenyl pyrophosphate incorporation); type: biochemical, Narcissus pseudonarcissus; settings: unit inferred, IC50 values in nM, read-out: IC50
Protocol: The IC50 value may be determined as follows. Daffodil chromoplasts are diluted to a volume of 500 microliters in a buffer containing 0.5M sucrose, 3 mM MgCl2, 1 mM ethylenediaminetetraacetic acid, 20 mM N-tris[hydroxymethyl]methyl-2-aminoethanesulfonic acid, […] N-[2-hydroxyethyl]-piperazine-N'-[2-ethanesulfonic acid], 5 mM L-cysteine, 10 mM sodium fluoride, and 0.1% bovine serum albumin at pH 7.7. The inhibitor to be tested may be dissolved in water other suitable solvent and then added to the reaction mixture. The assay is started by the addition of ^14 C-labeled isopentenyl pyrophosphate (52 Ci/mol) to give a final concentration in the assay of about 3 micromolar. The mixture is incubated at 30° C. with gentle agitation for a period of about 30 min. The reaction may be stopped by the addition of 0.5 mL of saturated NaCl and 2 mL of n-butanol saturated with water. After thorough mixing, the turbid suspensions are centrifuged briefly to separate the layers, and 1 mL of the bright yellow upper butanol layer is added to 10 mL of a suitable scintillation fluid which gives a single phase. The butanol soluble radioactivity is then measured in a scintillation counter.
In addition, the problem of variable quenching differences among different experiments can be essentially eliminated by determining the incorporation of radioactivity relative to controls. Each set of experiments requires two control tubes identical to the test samples except that they contain no inhibitor. One of these is quenched immediately (TO sample) and one is quenched at the end of the normal incubation period (T100 sample).
For each concentration of inhibitor examined the % residual activity is determined from the formula [formula]
Tightly closed daffodil flowers (Narcissus pseudonarcissus) were allowed to open at room temperature. […] Coronae were placed in twice their weight of isolation buffer consisting of 67 mM potassium phosphate, 0.74M sucrose, 5 mM MgCl2, and 0.2% polyvinyl-pyrrolidone at pH 7.6 and were disrupted by 30 seconds of homogenization at high speed in a Waring-type blender. The mixture was filtered through several layers of cheesecloth and 2 layers of 100 micron nylon mesh, and the resulting filtrate was centrifuged at 1000×g for 10 minutes. The pellet was discarded and supernatant was centrifuged at 22,000×g for 20 minutes. […] This solution was centrifuged at 22,000×g for 20 minutes to give orange pellets which were suspended in a buffer of 100 mM tris(hydroxymethyl)aminomethane at pH 7.6 containing 5mM MgCl2 and 2 mM dithiothreitol (1 ml per 10 coronae). This solution was frozen in liquid nitrogen and then stored at -80° C.
Thawed daffodil chromoplasts (100-150 microliters) were diluted to a final volume of 500 microliters in a buffer containing 0.5M sucrose, 3 mM MgCl2, 1 mM ethylenediaminetetraacetic acid, 10 mM N-[2-hydroxyethyl]piperazine-N^1 -[2-ethanesulfonic acid], 5 mM L-cysteine, 10 mM sodium fluoride, and 0.1% bovine serum albumin at pH 7.7. The inhibitor to be tested was dissolved in water or other suitable solvent and was added to the reaction mixture. The assay was started by the addition of ^14 C-labeled isopentenyl pyrophosphate (52 Ci/mol) to give a final concentration in the assay of about 3 micromolar. The mixture was incubated at 30° C. with gentle agitation for a period of about 30 minutes. The reaction was stopped by the addition of 0.5 mL of saturated NaCl and 2 mL of n-butanol saturated with water. After thorough mixing, the turbid suspensions were centrifuged briefly to separate the layers, and 1 mL of the bright yellow upper butanol layer was added to 10 mL of a suitable scintillation fluid which gave a single phase. The butanol soluble radioactivity was then measured in a scintillation counter. Each set of experiments required two control tubes identical to the test samples except that they contain no inhibitor.

[2] = tested on: wild oat (Avena fatua) (AVEFA); assay: post-emergent herbicidal test, wild oat; type: in vivo; settings: Avena fatua, post-emergence, read-out: AVEFA percent control
From the text: (§1) Seeds of several different weed species were planted in sandy loam soil containing only trace organic matter. Propagules were sown in individuals rows using one species per row across the width of an aluminum flat (19.5×9.5×6 cm). The grass weeds planted were green foxtail (Setaria viridis) ("SETVI"), wild oat (Avena fatua) ("AVEFA"), barnyard grass (Enchinochloa crusgalli) ("ECHCG"). Broadleaf weeds utilized were wild mustard (Brassica kaber), also known as Sinapis arvensis, ("SINAR"), velvetleaf (Abutilon theophrasti) ("ABUTH") and morningglory (Ipomoea spp.) ("IPOSS"). Additionally, yellow nutsedge (Cyperus esculentus) ("CYPES"), nutlets were sown. Seeding depths ranged from 1.0 to 1.5 cm and plant densities ranged from 3 to 25 plants per row depending on individual plant species.
(§2) The flats were placed into a greenhouse and watered overhead by sprinkling. The greenhouse environmental systems provided the plants with natural and artificial (via metal halide lamps) lighting to attain 14 hours of light per day. Day and night temperatures were maintained at 29° and 21° C. respectively. The plants were grown for 10 to 12 days (or to the appropriate growth stage) prior to compound application. Grasses were sprayed at a 3 to 4 leaf stage and broadleaves at a 1 to 2 leaf stage. Yellow nutsedge was 5 to 7 cm tall at application.
(§3) Solutions of the test compounds were prepared by weighing out 18.8 and 74.7 mg for 1 and 4 kg/ha applications respectively, of the test compound into a 60 ml wide-mouth bottle, then dissolving the compound in 14.0 ml of deionized water containing 0.5% v/v Tween 20' (polyoxyethylene sorbitan monolaurate emulsifier) as a surfactant. Additional solvents, not exceeding 2 ml (15% of spray volume), were used if needed to dissolve the compound.
(§4) The plants were sprayed inside an enclosed linear spray table with the nozzle set at 30.5 cm (12 inches) above the foliage.
(§5) Treated plants were then returned to a greenhouse and watered daily without wetting the foliage.
(§6) The degree of weed control was evaluated 17-21 days after application and recorded as percentage of control as compared to the growth of the same species in an untreated control flat of the same. Percent control is the total injury to the plants due to all factors including: inhibited emergence, stunting, malformation, chlorosis and other types of plant injury. The control ratings range from 0 to 100 percent, where 0% represents no effect with growth equal to the untreated control and where 100% represents complete kill.

[3] = tested on: barnyard grass (Enchinochloa crusgalli) (ECHCG); assay: post-emergent herbicidal test, barnyard grass; type: in vivo; settings: Echinochloa crus-galli, post-emergence, read-out: ECHCG percent control
From the text: as §1, §2, §3, §4, §5, §6

[4] = tested on: green foxtail (Setaria viridis) (SETVI); assay: post-emergent herbicidal test, green foxtail; type: in vivo; settings: Setaria viridis, post-emergence, read-out: SETVI percent control
From the text: as §1, §2, §3, §4, §5, §6

[5] = tested on: velvetleaf (Abutilon theophrasti) (ABUTH); assay: post-emergent herbicidal test, velvetleaf; type: in vivo; settings: Abutilon theophrasti, post-emergence, read-out: ABUTH percent control
From the text: as §1, §2, §3, §4, §5, §6

[6] = tested on: morningglory (Ipomoea spp.) (IPOSS); assay: post-emergent herbicidal test, morningglory; type: in vivo; settings: Ipomoea, post-emergence, read-out: IPOSS percent control
From the text: as §1, §2, §3, §4, §5, §6

[7] = tested on: wild mustard (Brassica kaber), also known as Sinapis arvensis (SINAR); assay: post-emergent herbicidal test, wild mustard; type: in vivo; settings: Brassica, post-emergence, read-out: SINAR percent control
From the text: as §1, §2, §3, §4, §5, §6

[8] = tested on: yellow nutsedge (Cyperus esculentus) (CYPES); assay: post-emergent herbicidal test, yellow nutsedge; type: in vivo; settings: Cyperus, post-emergence, read-out: CYPES percent control
From the text: as §1, §2, §3, §4, §5, §6

[9] = post-emergent, 1.0 kg/ha (*), 17-21 days after application

SMILES	IC50 ([1]; Table I) [nM]	IC50 ([1]; Table II) [nM]	pest or weed control at 1000 g/ha [2, 9] [%]	pest or weed control at 1000 g/ha [3, 9] [%]	pest or weed control at 1000 g/ha [4, 9] [%]	pest or weed control at 1000 g/ha [5, 9] [%]	pest or weed control at 1000 g/ha [6, 9] [%]	pest or weed control at 1000 g/ha [7, 9] [%]	pest or weed control at 1000 g/ha [8, 9] [%]	pest or weed control at 1000 g/ha [2] [%]	pest or weed control at 1000 g/ha [3] [%]	pest or weed control at 1000 g/ha [4] [%]	pest or weed control at 1000 g/ha [5] [%]	pest or weed control at 1000 g/ha [6] [%]	pest or weed control at 1000 g/ha [7] [%]	pest or weed control at 1000 g/ha [8] [%]
O=P(O)(O)C(CN1CCCCCC1)P(=O)(O)O [Compound 29]	360	360	60	60	60	0	15	85	0							
O=P(O)(O)C(CNCC(F)(F)F)P(=O)(O)O [Compound 39]	380	380	20	0	5	0	0	0	0							
CCCN(C)CC(P(=O)(O)O)P(=O)(O)O [Compound 32]	27	27	100	95	100	75	85	100	25							
C=CCCNCC(P(=O)(O)O)P(=O)(O)O [Compound 16]	316	316	80	100	90	10	10	100	20							
CCC(C)NCC(P(=O)(O)O)P(=O)(O)O (stereo not drawn) [Compound 48]	32	32	100	98	95	60	95	100	50							
CC1CCCN(CC(P(=O)(O)O)P(=O)(O)O)C1C (stereo not drawn) [Compound 57]	96	96	100	100	100	80	90	100	15							
CCCN(CCC)CC(P(=O)(O)O)P(=O)(O)O [Compound 19]	32	32	100	100	98	100	60	100	10							
C=CCNCC(P(=O)(O)O)P(=O)(O)O [Compound 18]	26	26								100	98	98	30	70	100	50
C=CCN(CC)CC(P(=O)(O)O)P(=O)(O)O [Compound 40]	88	88	85	90	80	10	10	95	10							
CCCCCCNCC(P(=O)(O)O)P(=O)(O)O [Compound 17]	316	316	75	50	60	0	10	50	0							
O=P(O)(O)C(CN[C@@H]1C[C@H]1c1ccccc1)P(=O)(O)O (relative stereo) [Compound 63]	2090	2090	0	5	10	20	5	10	0							
CCCNCC(P(=O)(O)O)P(=O)(O)O [Compound 3]	30	30								100	100	100	70	95	100	30
